Data as given in ChEMBL document CHEMBL1128717, “2,4-Diaminopyrido[3,2-d]pyrimidine inhibitors of dihydrofolate reductase from Pneumocystis carinii and Toxoplasma gondii” (J Med Chem, 1995).

Tests used:
[1] = biological target: T1, Dihydrofolate reductase (Pneumocystis carinii, UniProt P16184)
T1 sequence (P16184 whole entry): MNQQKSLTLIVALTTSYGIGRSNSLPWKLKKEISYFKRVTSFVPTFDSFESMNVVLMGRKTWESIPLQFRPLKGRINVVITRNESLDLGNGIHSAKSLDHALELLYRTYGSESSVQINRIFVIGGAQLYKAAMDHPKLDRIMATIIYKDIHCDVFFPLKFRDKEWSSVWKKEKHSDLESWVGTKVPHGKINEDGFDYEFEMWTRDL
Description: Concentration inhibiting Pneumocystis carinii dihydrofolate reductase

[2] = biological target: T2, Bifunctional dihydrofolate reductase-thymidylate synthase (Toxoplasma gondii, UniProt Q07422); experiment: Concentration inhibiting Toxoplasma gondii dihydrofolate reductase
T2 sequence (Q07422 whole entry): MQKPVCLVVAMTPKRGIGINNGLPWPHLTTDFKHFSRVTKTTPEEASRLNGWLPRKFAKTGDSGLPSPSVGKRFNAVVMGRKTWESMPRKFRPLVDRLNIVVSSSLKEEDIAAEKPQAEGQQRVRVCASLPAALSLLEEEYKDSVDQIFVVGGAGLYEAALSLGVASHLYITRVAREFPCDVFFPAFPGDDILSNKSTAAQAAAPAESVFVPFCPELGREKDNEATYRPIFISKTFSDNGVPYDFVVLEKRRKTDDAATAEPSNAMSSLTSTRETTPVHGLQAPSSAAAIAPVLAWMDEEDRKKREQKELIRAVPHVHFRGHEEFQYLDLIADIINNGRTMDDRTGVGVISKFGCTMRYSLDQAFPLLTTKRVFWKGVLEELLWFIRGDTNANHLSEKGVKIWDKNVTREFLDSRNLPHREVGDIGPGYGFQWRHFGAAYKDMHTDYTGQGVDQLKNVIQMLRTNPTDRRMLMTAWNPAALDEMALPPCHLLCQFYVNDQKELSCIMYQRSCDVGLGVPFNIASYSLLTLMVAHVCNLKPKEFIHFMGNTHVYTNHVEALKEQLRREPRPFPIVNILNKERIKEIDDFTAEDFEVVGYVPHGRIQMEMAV

[3] = biological target: T3, Dihydrofolate reductase (Rattus norvegicus, UniProt Q920D2)
T3 sequence (Q920D2 whole entry): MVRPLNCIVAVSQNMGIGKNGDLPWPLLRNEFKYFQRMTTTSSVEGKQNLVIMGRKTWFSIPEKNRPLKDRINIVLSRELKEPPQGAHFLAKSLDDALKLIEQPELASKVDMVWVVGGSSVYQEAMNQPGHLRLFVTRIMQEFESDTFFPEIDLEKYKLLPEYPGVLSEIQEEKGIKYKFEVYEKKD
Description: Concentration inhibiting rat liver dihydrofolate reductase.

Structure (SMILES)	IC50 [1]	IC50 [3]	IC50 [2]
COc1cc(N(C)Cc2ccc3nc(N)nc(N)c3n2)cc(OC)c1OC	130 nM	26 nM	4.7 nM
CN(Cc1ccc2nc(N)nc(N)c2n1)c1ccc(Cl)c(Cl)c1	22 nM	32 nM	98 nM
CN(Cc1ccc2nc(N)nc(N)c2n1)c1ccc(Cl)cc1	62 nM	22 nM	15 nM
COc1cc(NCc2ccc3nc(N)nc(N)c3n2)cc(OC)c1OC	2600 nM		82 nM

More lines, in order of falling IC50 [1], values ahead:

IC50 [1]	IC50 [3]	Structure (SMILES)	IC50 [2]
2100 nM	67 nM	CN(Cc1ccc2nc(N)nc(N)c2n1)c1cccc(Cl)c1	20 nM
1400 nM	430 nM	COc1ccc(OC)c(NCc2ccc3nc(N)nc(N)c3n2)c1	100 nM
